Experimental data from US20240352396A1, “PE[…]-C[…] CULTURE INCUBATOR” (Northeastern University, priority 2023, published 2024).

Key:
[1] = system: MCF7 cultures; conditions: MCF7 in 24-well plate, 5% O2 incubator, 5 mM sodium azide; rose from 3% O2 to the incubator setpoint; PBS-spiked cultures returned to 3% O2
Procedure: (§1) MCF7 were seeded overnight in a 24-well plate and incubated at 5% O2 for 24 hours. […] Cells were incubated with 1:1000 live/dead dye (LIVE/DEAD Fixable Kit, Thermo Fisher Scientific) for 1 hour. Flow cytometry (Attune NxT, Thermo Fisher Scientific) of live singlets was used to determine the cell viability.

[2] = system: MCF7; conditions: 5 mM NaN3, 6 hours, 5% O2
Procedure: as §1

For `[N-]=[N+]=[N-]` [sodium azide], the “pericellular O2 tension” value [1] was 5 % O2 and the MCF7 cell viability [2] was “no significant change”.
